Source: PMC2248166, “Quantitative peptide binding motifs for 19 human and mouse MHC class I molecules derived using positional scanning combinatorial peptide libraries” (Immunome Research, 2008)

Legend:
Assay type in all cases: binding
[1] = target: HLA A*3001 (Homo sapiens, UniProt P04439, D140H/D185E/E176W/F33S/G80R/H175R/K168Q/R138E/R41S); assay: biochemical
[2] = target: HLA A*3201 (Homo sapiens, UniProt P04439, A270S/D101S/D185E/E176V/E277Q/F133L/G103R/G107R/G231S/H175R/I121M/I218V/I322F/K168Q/L105A/L300P/L318F/M331R/P208A/P217A/Q94H/R106L/R138Q/S129P/T104I/T323A/T345S/V100E/V321M/V358M); assay: biochemical
[3] = target: HLA A*6802 (Homo sapiens, UniProt P04439, A269V/D140Y/D185E/E176V/E277Q/E87N/F33Y/G231S/I121R/I166T/I218V/L180W/L300P/L318F/N151K/P208A/P217A/Q86R/R138H/R169H/S129P/T345S/V36M)
[4] = target: HLA B*0801 (Homo sapiens, UniProt P01889, A93T/A95T/D138N/E176V/E187T/K202T/Q94N/R180D/S35A/V36M/Y33D/Y91F); assay: biochemical
[5] = target: HLA B*1501 (Homo sapiens, UniProt P01889, A329T/A93T/A95T/C349S/D201E/D98Y/E187L/E204Q/E69M/E70A/K202T/N87E/Q94N/R155S/R180W/S121R/S35A/S48A/V306I/V36M/Y140S/Y91S); assay: biochemical
[6] = target: HLA B*1503 (Homo sapiens, UniProt P01889, A329T/A93T/A95T/C349S/D201E/D98Y/E187L/E204Q/K202T/N87E/Q94N/R155S/R180L/S121R/S35A/V306I/V36M/Y140S/Y91S); assay: biochemical
[7] = target: HLA B*3501 (Homo sapiens, UniProt P01889, A329T/A93T/A95T/C349S/D201E/D98Y/E176V/E187L/E204Q/E69T/I218V/K202T/L119I/Q94N/R155S/R180L/S121R/S35A/S48A/T118I/V127L/V306I/V36M/Y140S/Y91F)
[8] = target: HLA B*5101 (Homo sapiens, UniProt P01889, A329T/A93T/A95T/C349S/D138N/D201E/D98Y/E187L/E204Q/E69T/G107R/I218V/K202T/L105A/L119W/N104I/Q94N/R106L/R155S/R180L/S101N/S121T/S35A/S48A/V306I/V36M/Y195H/Y91F)
[9] = target: HLA B*5301 (Homo sapiens, UniProt P01889, A329T/A93T/A95T/C349S/D201E/D98Y/E176V/E187L/E204Q/E69T/G107R/I218V/K202T/L105A/L119I/N104I/Q94N/R106L/R155S/R180L/S101N/S121R/S35A/S48A/T118I/V127L/V306I/V36M/Y140S/Y91F)
[10] = target: HLA B*5401 (Homo sapiens, UniProt P01889, A329T/C349S/D138N/D201E/E176V/E187T/E204Q/E69G/I76V/K202T/L119W/R155S/R180L/S121T/S35A/S48A/V127L/V306I/V36M/Y140L)
[11] = target: HLA B*5801 (Homo sapiens, UniProt P01889, A329T/C349S/D201E/D98Y/E176V/E187L/E204Q/E69T/G107R/I218V/I90N/K202T/L105A/L119I/N104I/N87E/Q89R/Q94S/R106L/R155S/R180L/R86G/S101N/S121R/S35A/S48A/T118I/V127L/V306I/V36M/Y140S/Y91M)
[12] = target: HLA B*5802 (Homo sapiens, UniProt P01889, A329T/C349S/D201E/D98Y/E176V/E187L/E204Q/E69T/G107R/I218V/I90N/K202T/L105A/N104I/N87E/Q89R/Q94S/R106L/R155S/R180L/R86G/S101N/S121W/S35A/S48A/V127L/V306I/V36M/Y140S/Y91M)
[13] = target: H-2 D^b (Mus musculus, UniProt P01899)
H-2 D^b, sequence (P01887 21-119): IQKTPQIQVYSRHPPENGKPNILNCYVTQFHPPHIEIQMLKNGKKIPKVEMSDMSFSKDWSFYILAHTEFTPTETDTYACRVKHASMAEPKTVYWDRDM
H-2 D^b, sequence (P01899 25-362): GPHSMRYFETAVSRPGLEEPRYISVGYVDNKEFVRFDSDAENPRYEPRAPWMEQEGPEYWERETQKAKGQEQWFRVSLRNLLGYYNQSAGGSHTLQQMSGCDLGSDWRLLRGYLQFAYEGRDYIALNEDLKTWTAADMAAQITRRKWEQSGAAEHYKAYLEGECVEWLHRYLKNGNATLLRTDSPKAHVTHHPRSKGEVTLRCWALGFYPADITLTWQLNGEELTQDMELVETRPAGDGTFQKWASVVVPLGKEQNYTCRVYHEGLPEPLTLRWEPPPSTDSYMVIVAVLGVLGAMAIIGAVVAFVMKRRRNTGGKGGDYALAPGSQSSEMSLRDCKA

[14] = target: H-2 D^d (Mus musculus, UniProt P01900)
H-2 D^d, sequence (P01900 whole entry, looked up): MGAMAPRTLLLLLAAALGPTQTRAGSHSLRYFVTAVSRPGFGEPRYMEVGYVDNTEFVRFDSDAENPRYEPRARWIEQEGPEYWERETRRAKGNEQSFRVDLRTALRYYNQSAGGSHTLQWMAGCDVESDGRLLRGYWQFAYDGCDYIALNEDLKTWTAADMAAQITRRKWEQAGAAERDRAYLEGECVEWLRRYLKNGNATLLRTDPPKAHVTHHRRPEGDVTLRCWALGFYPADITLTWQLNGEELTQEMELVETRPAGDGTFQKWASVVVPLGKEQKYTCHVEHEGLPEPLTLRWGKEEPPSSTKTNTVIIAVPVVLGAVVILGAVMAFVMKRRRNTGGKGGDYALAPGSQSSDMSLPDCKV

[15] = target: H-2 K^d (Mus musculus, UniProt P01902)
H-2 K^d, sequence (P01887 21-119): as the sequence (P01887 21-119) above
H-2 K^d, sequence (P01902 22-368): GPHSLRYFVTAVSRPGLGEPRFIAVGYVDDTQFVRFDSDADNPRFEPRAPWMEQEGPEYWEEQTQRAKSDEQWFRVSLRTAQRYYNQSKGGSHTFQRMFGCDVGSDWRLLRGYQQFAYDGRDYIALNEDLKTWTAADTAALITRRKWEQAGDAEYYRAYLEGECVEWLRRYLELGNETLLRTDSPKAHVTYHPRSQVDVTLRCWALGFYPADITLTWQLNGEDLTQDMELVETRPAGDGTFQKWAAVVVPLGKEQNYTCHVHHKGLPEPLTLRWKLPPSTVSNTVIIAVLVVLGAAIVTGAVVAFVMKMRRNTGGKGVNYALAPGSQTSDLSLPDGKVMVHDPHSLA

[16] = target: H-2 K^k (Mus musculus, UniProt P04223)
H-2 K^k, sequence (P01887 21-119): as the sequence (P01887 21-119) above
H-2 K^k, sequence (P04223 22-369): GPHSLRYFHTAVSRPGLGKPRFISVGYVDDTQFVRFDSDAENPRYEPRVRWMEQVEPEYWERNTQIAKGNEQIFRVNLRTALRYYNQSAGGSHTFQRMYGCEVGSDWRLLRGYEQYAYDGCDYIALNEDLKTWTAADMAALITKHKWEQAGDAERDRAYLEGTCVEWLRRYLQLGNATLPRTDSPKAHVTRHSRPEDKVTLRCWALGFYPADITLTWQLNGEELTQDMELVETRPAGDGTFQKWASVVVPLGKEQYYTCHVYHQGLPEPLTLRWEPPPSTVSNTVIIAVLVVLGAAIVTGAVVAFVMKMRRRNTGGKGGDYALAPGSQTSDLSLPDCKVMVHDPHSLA

Row | Sequence | Normalized average relative binding affinity(ARB) [1] | Normalized average relative binding affinity(ARB) [2] | Normalized average relative binding affinity(ARB) [3] | Normalized average relative binding affinity(ARB) [4] | Normalized average relative binding affinity(ARB) [5] | Normalized average relative binding affinity(ARB) [6] | Normalized average relative binding affinity(ARB) [7] | Normalized average relative binding affinity(ARB) [8] | Normalized average relative binding affinity(ARB) [9] | Normalized average relative binding affinity(ARB) [10] | Normalized average relative binding affinity(ARB) [11] | Normalized average relative binding affinity(ARB) [12] | Normalized average relative binding affinity(ARB) [13] | Normalized average relative binding affinity(ARB) [14] | Normalized average relative binding affinity(ARB) [15] | Normalized average relative binding affinity(ARB) [16]
1 | XXXXXXKXX [3064.0129] | 0.062 | 0.030 | 0.086 | 0.26 | 0.15 | 0.091 | 0.073 | 0.12 | 0.022 | 0.089 | 0.037 | 0.031 | 0.062 | 0.0067 | 0.023 | 0.15
2 | XXXXXXFXX [3064.0125] | 0.18 | 0.44 | 0.46 | 0.40 | 0.34 | 0.077 | 0.32 | 0.43 | 0.10 | 0.17 | 0.018 | 0.084 | 0.72 | 1.0 | 0.088 | 1.0
3 | XXXLXXXXX [3064.0070] | 0.52 | 0.098 | 0.14 | 0.61 | 0.56 | 0.46 | 0.10 | 0.69 | 0.17 | 0.74 | 0.42 | 0.50 | 0.96 | 0.52 | 0.17 | 0.96
4 | XXXXXXVXX [3064.0138] | 0.19 | 1.0 | 0.80 | 0.55 | 0.56 | 0.19 | 0.57 | 0.57 | 0.32 | 0.77 | 0.53 | 0.073 | 0.57 | 0.045 | 0.13 | 0.079
5 | XXXXAXXXX [3064.0081] | 0.48 | 0.14 | 0.48 | 0.029 | 0.64 | 1.0 | 0.57 | 1.0 | 0.13 | 0.29 | 0.28 | 0.56 | 0.046 | 0.37 | 0.37 | 0.14
6 | XXXXXXXVX [3064.0158] | 0.19 | 0.62 | 0.17 | 0.48 | 0.38 | 0.34 | 0.37 | 0.32 | 0.51 | 0.10 | 0.20 | 0.26 | 0.35 | 0.52 | 0.37 | 0.38
7 | XXXMXXXXX [3064.0071] | 0.38 | 0.58 | 0.55 | 1.0 | 0.56 | 1.0 | 0.27 | 0.46 | 0.46 | 0.13 | 0.54 | 0.44 | 0.65 | 0.49 | 0.22 | 0.42
8 | XXXVXXXXX [3064.0078] | 0.22 | 0.27 | 0.15 | 0.47 | 0.52 | 0.64 | 0.17 | 0.67 | 0.70 | 1.00 | 0.33 | 0.53 | 0.87 | 0.48 | 0.19 | 0.49
